According to US7495027B2, “3-aryl-4-hydroxyfuranone compounds and the human and animal health use thereof” (Wyeth, priority 2003, dated 2009):
In brackets after ≈: the same amount, converted by molar mass. Read-outs that look alike come from different tables or passages of the source.

Legend:
[1] = tested on: Trichostrongylus columbriformis; experiment: In vivo efficacy against T. colubriformis in infected gerbils; conditions: gerbils infected with T. colubriformis; single oral dose of 50 mg/kg by gavage; worm counts four days post-treatment; % mortality as compared to negative control
Method in brief: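 Gerbils infected with ~800 L3/mL larvae were treated one week later by gavage with a single 50 mg/kg oral dose in PEG 400:DMSO (1:2 v/v), 3 animals per group. Necropsy four days post-treatment, with worms counted under stereoscopes.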

[2] = Toxicity in treated gerbils (deaths or significant weight loss); type: in vivo; parameters: key: +: Toxicity is indicated for those groups having one or more animals expired; conditions: single oral dose of 50 mg/kg, groups of 3
Protocol: In this evaluation, gerbils are infected with Trichostrongylus columbriformis infective larvae at a concentration of approximately 800 L3/mL. Larvae for gerbil infections are cultured from feces from sheep previously infected with T. colubriformis. One week post infection, test compounds are administered by gavage as a single oral dose of 50 mg/kg of body weight. For each group of 3 gerbils, 10 mg of test compound are dissolved in 2 mL of PEG 400:DMSO (1:2 v/v) and each animal is administered the test solution at a rate of 0.1 mL/10 g of body weight. […] All animals are observed daily for morbidity and mortality. Four days post-treatment, all animals are weighed and necropsied. Worm counts are conducted with the use of stereoscopes and counters.

[3] = tested on: C. elegans; experiment: Efficacy against nematodes (C. elegans motility rating); parameters: key: 0: no effect; 7: reduced movement in 24 h; 8: dead in 24 h; 9: dead in 4 h; conditions: observations at 4 h and 24 h postimmersion
Method in brief: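 Mixed-stage C. elegans (~50 per well, L1 to adult) in M9 buffer exposed to test compound at 100 ppm, 150 ppm or 200 μM final. Motility of larvae and adults scored under dissecting microscope at 4 h and 24 h.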

[4] = biological target: T1, S. aureus Uridine-diphosphate-N-acetylmuramoyl-L-alanine: D-glutamate liease, MurD (Staphylococcus aureus, UniProt Q2FZ92); experiment: biochemical; conditions: (S) S. aureus enzyme
T1 sequence (Q2FZ92 1-449): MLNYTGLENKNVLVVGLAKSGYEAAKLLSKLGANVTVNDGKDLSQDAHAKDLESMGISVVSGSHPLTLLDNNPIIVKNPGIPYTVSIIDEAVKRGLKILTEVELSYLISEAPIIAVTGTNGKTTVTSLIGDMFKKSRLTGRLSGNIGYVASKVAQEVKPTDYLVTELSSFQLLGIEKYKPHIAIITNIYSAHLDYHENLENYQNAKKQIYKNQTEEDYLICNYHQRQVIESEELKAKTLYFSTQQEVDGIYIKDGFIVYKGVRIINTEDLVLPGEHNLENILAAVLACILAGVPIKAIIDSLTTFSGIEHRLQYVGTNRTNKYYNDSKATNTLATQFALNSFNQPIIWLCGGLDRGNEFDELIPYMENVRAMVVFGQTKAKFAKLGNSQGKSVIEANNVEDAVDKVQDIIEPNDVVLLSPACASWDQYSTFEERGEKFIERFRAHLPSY
Method in brief: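 Test solutions, 10 mg/mL stocks in DMSO, were brought to 100 μg/mL with 50 mM Tris/HCl (pH 8.5). Their inhibition of MurD, the enzyme of the fourth cell wall biosynthesis step, was measured.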

[5] = biological target: E. coli Uridine-diphosphate-N-acetvimuramoyl: L-alanine lipase, MurC (Escherichia coli, UniProt P17952); experiment: Inhibitory activity against MurC (E. coli); type: biochemical; conditions: (E) E. coli enzyme; read-out: MurC IC50 (converted)
E. coli Uridine-diphosphate-N-acetvimuramoyl: L-alanine lipase, MurC, sequence (P17952 whole entry): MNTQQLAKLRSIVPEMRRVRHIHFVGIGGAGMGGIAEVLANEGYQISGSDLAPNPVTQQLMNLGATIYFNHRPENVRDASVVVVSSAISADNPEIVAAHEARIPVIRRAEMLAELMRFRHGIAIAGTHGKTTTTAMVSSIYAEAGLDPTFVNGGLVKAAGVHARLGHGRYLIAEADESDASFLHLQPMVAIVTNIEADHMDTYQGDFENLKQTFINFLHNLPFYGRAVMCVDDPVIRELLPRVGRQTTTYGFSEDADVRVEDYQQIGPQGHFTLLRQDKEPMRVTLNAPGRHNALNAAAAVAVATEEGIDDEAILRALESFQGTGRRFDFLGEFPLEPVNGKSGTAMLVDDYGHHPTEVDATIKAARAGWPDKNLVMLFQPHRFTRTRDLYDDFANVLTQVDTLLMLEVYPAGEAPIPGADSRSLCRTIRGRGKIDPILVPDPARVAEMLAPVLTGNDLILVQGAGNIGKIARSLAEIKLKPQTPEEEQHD

[6] = tested on: Streptococci; experiment: Minimum inhibitory concentration, microdilution broth method, streptococci; type: cell-based; conditions: Mueller-Hinton broth with 5% horse blood, 18-22 hours at 35° C.; for MIC: S. pneumo GC 1894
Method in brief: (§1)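 Broth microdilution MIC per NCCLS M7-A5. Staphylococci and enterococci tested in Mueller-Hinton broth; streptococci in Mueller-Hinton broth with 5% lysed horse blood. Strains include clinical isolates resistant to methicillin, penicillin and/or vancomycin.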

[7] = tested on: staphylococci; experiment: Minimum inhibitory concentration, microdilution broth method, staphylococci; type: cell-based; conditions: Mueller-Hinton broth, 18-22 hours at 35° C.; for MIC: Staphylococcus aureus
Method in brief: as §1

[8] = biological target: E. coli UDP-N-acetylglucosamine enolpyruvoyl transferase, MurA (Escherichia coli, UniProt P0A749); experiment: biochemical; conditions: (E) E. coli enzyme
E. coli UDP-N-acetylglucosamine enolpyruvoyl transferase, MurA, sequence (P0A749 whole entry): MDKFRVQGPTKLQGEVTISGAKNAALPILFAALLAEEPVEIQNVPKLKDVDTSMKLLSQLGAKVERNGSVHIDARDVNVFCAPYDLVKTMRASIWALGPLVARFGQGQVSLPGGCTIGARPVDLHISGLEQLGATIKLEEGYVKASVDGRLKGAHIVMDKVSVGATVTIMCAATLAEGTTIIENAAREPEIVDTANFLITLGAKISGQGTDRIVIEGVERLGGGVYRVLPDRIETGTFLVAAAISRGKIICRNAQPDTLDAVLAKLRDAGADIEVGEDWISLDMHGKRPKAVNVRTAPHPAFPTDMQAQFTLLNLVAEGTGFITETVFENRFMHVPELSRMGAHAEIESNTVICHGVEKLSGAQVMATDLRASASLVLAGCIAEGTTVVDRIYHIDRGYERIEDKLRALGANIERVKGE
Method in brief: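 Enzyme in 50 mM Tris/HCl pH 8.0 with 5 mM DTT and 20% glycerol was pre-incubated 10 min at 37° C with test compound in DMSO/water. Tris/BME and assay buffer then started the 1 hr, 37° C reaction, with a baseline 340 nm reading taken at start. Stop solution followed, and colour developed 30 minutes.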

[9] = biological target: E. coli Enopyruvyl-UPD-N-acetylglucosamine reductase, Mur B (Escherichia coli, UniProt P08373); experiment: biochemical; conditions: (E) E. coli enzyme; read-out: MurB IC50 (converted)
E. coli Enopyruvyl-UPD-N-acetylglucosamine reductase, Mur B, sequence (P08373 whole entry): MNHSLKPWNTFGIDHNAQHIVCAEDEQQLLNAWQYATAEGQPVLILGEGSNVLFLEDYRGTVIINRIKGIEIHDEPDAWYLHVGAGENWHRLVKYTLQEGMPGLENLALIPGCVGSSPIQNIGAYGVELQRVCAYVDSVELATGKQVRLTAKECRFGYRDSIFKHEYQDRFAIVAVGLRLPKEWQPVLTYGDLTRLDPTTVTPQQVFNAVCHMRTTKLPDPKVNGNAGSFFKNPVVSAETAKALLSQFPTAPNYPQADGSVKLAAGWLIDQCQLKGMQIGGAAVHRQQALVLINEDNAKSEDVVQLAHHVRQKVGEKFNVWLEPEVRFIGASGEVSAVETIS

[10] = tested on: enterococci; experiment: Minimum inhibitory concentration, microdilution broth method, enterococci; type: cell-based; conditions: Mueller-Hinton broth, 18-22 hours at 35° C.; for MIC: Enterococcus faecalis
Method in brief: as §1

[11] = biological target: E. coli Uridine-diphosphate-N-acetylmuramoyl-L-alanine: D-glutamate liease, MurD (Escherichia coli, UniProt P14900); experiment: biochemical; conditions: (E) E. coli enzyme
E. coli Uridine-diphosphate-N-acetylmuramoyl-L-alanine: D-glutamate liease, MurD, sequence (P14900 whole entry): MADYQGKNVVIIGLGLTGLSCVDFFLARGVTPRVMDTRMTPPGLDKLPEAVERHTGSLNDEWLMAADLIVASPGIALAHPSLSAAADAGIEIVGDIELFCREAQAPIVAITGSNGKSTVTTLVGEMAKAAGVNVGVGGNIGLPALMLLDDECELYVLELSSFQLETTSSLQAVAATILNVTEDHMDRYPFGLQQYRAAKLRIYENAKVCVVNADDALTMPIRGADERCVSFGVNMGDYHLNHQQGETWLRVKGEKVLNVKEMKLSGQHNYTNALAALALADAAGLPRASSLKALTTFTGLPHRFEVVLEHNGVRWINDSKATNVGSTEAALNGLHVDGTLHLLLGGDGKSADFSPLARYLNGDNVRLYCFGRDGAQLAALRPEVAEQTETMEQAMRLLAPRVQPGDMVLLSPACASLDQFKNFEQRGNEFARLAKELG
Method in brief: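 Compound working solutions reach 100 μg/mL in 50 mM Tris/HCl (pH 8.5) after dilution of 10 mg/mL DMSO stocks; final level in the well not given here. Reaction buffer finals: 2 mM ATP, 50 mM MgCl2, 83 mM Tris/HCl, pH 8.0.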

[12] = S. aureus GC 1131, read-out: MIC S. aureus GC 1131
[13] = S. aureus GC 4543, read-out: MIC S. aureus GC 4543
[14] = E. faecalis GC 2242, read-out: MIC E. faecalis GC 2242
[15] = E. faecalis GC 4555, read-out: MIC E. faecalis GC 4555

O=C1OC(=Cc2ccc(OC(F)(F)F)cc2)C(O)=C1c1ccc(OC(F)(F)F)cc1 (mixture of isomers) [R=H; R1=4-OCF3—C6H4**; R2=4-OCF3—C6H4]
Mortality [1]: 100.0%
Toxicity [2]: +
Rating ([3]; dose 100 ppm): 9

O=C1O/C(=C\c2cccc(C(F)(F)F)c2)C(O)=C1c1cccc(-c2ccccc2)c1 [Example 108]
IC50 [4]: 36.7 µM
IC50 [5]: 14.7 µM
MIC [6]: 1 µg/mL (≈ 2.45 µM)
MIC [7, 12]: 2 µg/mL (≈ 4.9 µM)
MIC [7, 13]: 2 µg/mL (≈ 4.9 µM)
IC50 [8]: 46.5 µM
IC50 [9]: 24.5 µM
MIC [10, 14]: 2 µg/mL (≈ 4.9 µM)
MIC [10, 15]: 8 µg/mL (≈ 19.6 µM)
IC50 [11]: > 61.2 µM
melting point: 210 to 212 °C

O=C1O/C(=C\c2ccc(-c3ccccc3)cc2)C(O)=C1c1cc(Cl)cc(Cl)c1 [Example 68]
IC50 [4]: 26.9 µM
IC50 [5]: 22 µM
MIC S. pneumo GC 1894 [6]: <0.125 µg/mL
MIC S. aureus GC 1131 ([7]; S. aureus GC 1131): 2 µg/mL (≈ 4.89 µM)
MIC S. aureus GC 4543 ([7]; S. aureus GC 4543): 2 µg/mL (≈ 4.89 µM)
IC50 [8]: 7.33 µM
IC50 [9]: 7.33 µM
MIC E. faecalis GC 2242 ([10]; E. faecalis GC 2242): 1 µg/mL (≈ 2.44 µM)
MIC E. faecalis GC 4555 ([10]; E. faecalis GC 4555): 2 µg/mL (≈ 4.89 µM)
IC50 [11]: 26.9 µM
melting point: 232 to 235 °C

O=C1OC(=Cc2ccc(Cl)cc2)C(O)=C1c1ccc(OC(F)(F)F)cc1 (mixture of isomers) [R=H; R1=4-OCF3—C6H4**; R2=4-Cl—C6H4]
Mortality [1]: 100.0%
Toxicity [2]: +
Rating ([3]; dose 100 ppm): 9

N#Cc1ccc(C2=C(O)C(=Cc3ccc(OC(F)(F)F)cc3)OC2=O)cc1 (mixture of isomers) [R=H; R1=4-CN—C6H4**; R2=4-OCF3—C6H4]
Mortality [1]: 90.00%
Toxicity [2]: +
Rating ([3]; dose 100 ppm): 9

COc1cc(/C=C2\OC(=O)C(c3cccc(Cl)c3)=C2O)ccc1-c1ccccc1C(F)(F)F
Mortality [1]: 29.50%
Toxicity [2]: +

O=C1O/C(=C\c2ccc(-c3ccccc3)cc2)C(O)=C1c1ccc(Cl)cc1 [R=H; R1=4-Cl—C6H4; R2=4-biphenyl]
Mortality [1]: 33.10%
Toxicity [2]: +

O=C1OC(=Cc2ccc(F)c(F)c2)C(O)=C1c1ccc(OC(F)(F)F)cc1 (mixture of isomers) [R=H; R1=4-OCF3—C6H4**; R2=3,4-diF—C6H3]
Mortality [1]: 100.0%
Toxicity [2]: +
Rating ([3]; dose 100 ppm): 9

N#Cc1ccc(C2=C(O)C(=Cc3ccc(Cl)cc3)OC2=O)cc1 [R=H; R1=4-CN—C6H4; R2=4-Cl—C6H4]
Mortality [1]: 90.20%
Toxicity [2]: +

O=C1OC(=Cc2ccc(F)cc2)C(O)=C1c1ccc(OC(F)(F)F)cc1 (mixture of isomers) [R=H; R1=4-OCF3—C6H4**; R2=4-F—C6H4]
Mortality [1]: 0.00%
Toxicity [2]: +
Rating ([3]; dose 100 ppm): 9

O=C1O/C(=C\c2ccc(-c3ccc(Cl)cc3)cc2)C(O)=C1c1ccc(Cl)cc1 [R=H; R1=4-Cl—C6H4; R2=4-(4′-Cl-biphenyl)]
Mortality [1]: 61.33%
Toxicity [2]: +
Rating ([3]; dose 150 ppm): 9

N#Cc1ccc(/C=C2\OC(=O)C(c3ccc(Cl)cc3)=C2O)cc1 [R=H; R1=4-Cl—C6H4; R2=4-CN—06H4]
Mortality [1]: 84.54%
Toxicity [2]: +

O=C1O/C(=C\c2ccccc2C(F)(F)F)C(O)=C1c1ccc(-c2ccccc2)c(F)c1 [Example 107]
IC50 [4]: 39.9 µM
IC50 [5]: 14.1 µM
MIC [6]: 0.25 µg/mL (≈ 0.586 µM)
MIC [7, 12]: 4 µg/mL (≈ 9.38 µM)
MIC [7, 13]: 2 µg/mL (≈ 4.69 µM)
IC50 [8]: 32.8 µM
IC50 [9]: 9.38 µM
MIC [10, 14]: 2 µg/mL (≈ 4.69 µM)
MIC [10, 15]: 8 µg/mL (≈ 18.8 µM)
IC50 [11]: > 58.6 µM
melting point: 224 to 228 °C

N#Cc1ccc(C2=C(O)C(=Cc3ccc(-c4ccc(Cl)cc4)cc3)OC2=O)cc1 [R=H; R1=4-CN—C6H4; R2=4-(4′-Cl-biphenyl)]
Mortality [1]: 64.33%
Toxicity [2]: +

N#Cc1ccc(C2=C(O)/C(=C/c3ccc(-c4ccc(C#N)cc4)cc3)OC2=O)cc1 [R=H; R1=4-CN—C6H4; R2=4-(4′CN-biphenyl)]
Mortality [1]: 88.60%
Toxicity [2]: +

O=C1O/C(=C\c2ccc3ccccc3c2)C(O)=C1c1ccc(-c2ccccc2)cc1 [Example 103]
IC50 [5]: 41 µM
MIC [6]: 0.5 µg/mL (≈ 1.28 µM)
MIC [7, 12]: > 128 µg/mL
MIC [7, 13]: 64 µg/mL (≈ 164 µM)
IC50 [8]: > 64 µM
IC50 [9]: 15.4 µM
MIC [10, 14]: 32 µg/mL (≈ 82 µM)
MIC [10, 15]: 64 µg/mL (≈ 164 µM)
IC50 [11]: > 64 µM
melting point: 266 to 270 °C

COc1ccc(C2=C(O)/C(=C/c3ccc(-c4ccccc4)cc3)OC2=O)cc1 [Example 9]
IC50 [5]: > 67.5 µM
MIC [6]: < 0.125 µg/mL
MIC [7, 12]: 32 µg/mL (≈ 86.4 µM)
MIC [7, 13]: > 128 µg/mL
IC50 [8]: > 67.5 µM
IC50 [9]: 43.2 µM
MIC [10, 14]: 8 µg/mL (≈ 21.6 µM)
MIC [10, 15]: 64 µg/mL (≈ 173 µM)
IC50 [11]: > 67.5 µM
melting point: 266 to 269 °C

Cc1ccc(/C=C2\OC(=O)C(c3ccc4ccccc4c3)=C2O)s1 [Example 41]
IC50 [5]: 38.9 µM
MIC [6]: 32 µg/mL (≈ 95.7 µM)
MIC [7, 12]: 32 µg/mL (≈ 95.7 µM)
MIC [7, 13]: 64 µg/mL (≈ 191 µM)
IC50 [8]: > 74.8 µM
IC50 [9]: > 74.8 µM
MIC [10, 14]: 32 µg/mL (≈ 95.7 µM)
MIC [10, 15]: 64 µg/mL (≈ 191 µM)
IC50 [11]: > 74.8 µM
melting point: 144 to 145 °C (dec.)

O=C1O/C(=C\c2ccc(-c3ccccc3)cc2)C(O)=C1c1ccc(Cl)c(Cl)c1 [Example 66]
IC50 [4]: 12.2 µM
IC50 [5]: 7.33 µM
MIC [6]: < 0.125 µg/mL
MIC [7, 12]: 2 µg/mL (≈ 4.89 µM)
MIC [7, 13]: 1 µg/mL (≈ 2.44 µM)
IC50 [8]: 7.33 µM
IC50 [9]: 4.89 µM
MIC [10, 14]: 0.5 µg/mL (≈ 1.22 µM)
MIC [10, 15]: 2 µg/mL (≈ 4.89 µM)
IC50 [11]: 51.3 µM
melting point: 265 to 269 °C

O=C1O/C(=C\c2ccc(-c3ccccc3)cc2)C(O)=C1c1ccc(Cl)cc1Cl [Example 65]
IC50 [4]: 36.7 µM
IC50 [5]: 7.33 µM
MIC [6]: < 0.125 µg/mL
MIC [7, 12]: 8 µg/mL (≈ 19.5 µM)
MIC [7, 13]: 8 µg/mL (≈ 19.5 µM)
IC50 [8]: > 61.1 µM
IC50 [9]: 24.4 µM
MIC [10, 14]: 4 µg/mL (≈ 9.77 µM)
MIC [10, 15]: 16 µg/mL (≈ 39.1 µM)
IC50 [11]: 58.6 µM
melting point: 252 to 256 °C

N#Cc1ccc(/C=C2\OC(=O)C(c3ccc(C#N)cc3)=C2O)cc1 [R=H; R1=4-CN—C6H4; R2=4-CN—C6H4]
Mortality [1]: 62.43%
Toxicity [2]: +
